From ChEMBL document CHEMBL1201862, “PubChem BioAssay data set” (2004)
The source made the active and inactive calls.

How the values were obtained:
[1] = A High Throughput Confirmatory Assay used to Identify Novel Compounds that Inhibit Mycobacterium Tuberculosis in the absence of Glycerol.; assay type: functional
[2] = target: T1, Tyrosine-protein phosphatase non-receptor type 7 (Homo sapiens, UniProt P35236); assay: HePTP tyrosine phosphatase activity blockers – biochemical, absorbance, leukemia target, primary screen (AID 521); assay type: functional
T1 sequence (P35236 whole entry): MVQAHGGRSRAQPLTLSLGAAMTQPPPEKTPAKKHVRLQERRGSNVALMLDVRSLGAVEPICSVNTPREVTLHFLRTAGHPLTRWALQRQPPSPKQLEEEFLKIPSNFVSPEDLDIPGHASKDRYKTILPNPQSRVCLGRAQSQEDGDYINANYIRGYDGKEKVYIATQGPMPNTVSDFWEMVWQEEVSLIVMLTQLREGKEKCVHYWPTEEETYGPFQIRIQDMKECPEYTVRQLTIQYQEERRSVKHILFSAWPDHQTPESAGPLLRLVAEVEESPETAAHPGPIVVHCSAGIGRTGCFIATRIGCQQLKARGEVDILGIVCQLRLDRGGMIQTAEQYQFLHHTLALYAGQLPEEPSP

[3] = Luminescence-based dose response cell-based high throughput screening assay for cytotoxic compounds using the IEC-6 intestinal epithelial cell line. [Related pubchem assays: 1858 (Summary AID.), 1825 (Counterscreen.), 1907 (Confirmation screen.)]; assay type: functional
[4] = Luminescence Cell-Based Dose Retest to Confirm Inhibitors of Cancer Stem Cells. [Related pubchem assays (depositor defined):AID2717, AID2721]; assay type: functional; conditions: Homo sapiens
[5] = HEK-293T viability loss after treatment – luminescence, T-cell screen hits, cytotoxicity control for TCR NF-kB inhibitor project, dose response (AID 489026); assay type: functional, cell-based;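 further: cells exposed to compound about 14 hours before the viability readout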
Vero [6] = assay: mammalian cell viability reduction – secondary assay, cytotoxicity control for West Nile virus antiviral project, dose response (AID 1650); assay type: functional; conditions: Chlorocebus sabaeus
[7] = Trypanosoma cruzi growth suppression in host cells – NIH3T3 host cells, beta-gal luminescence, confirmation (AID 2044); assay type: functional, cell-based;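 further: intracellular parasites grown in NIH/3T3 mouse fibroblasts as host cells; luminescent beta-galactosidase reporter signal from transgenic T. cruzi replicating inside host cells; inhibitors lower the luminescence signal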
[8] = NIH3T3 cell viability loss – ATP luminescence, mouse fibroblasts, counter-screen, dose response (AID 2010); assay type: functional, cell-based;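 further: cells exposed to compound for about 90 hours before reading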
Vero [9] = assay: cells; assay type: functional; conditions: Chlorocebus sabaeus
Large T antigen = Large T antigen (Simian virus 40, UniProt P03070); assay type: functional, Betapolyomavirus macacae;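 further: Confirmatory-stage PubChem screen for compounds that inhibit SV40 T antigen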
[10] = target: T2, Mannose-6-phosphate isomerase (Homo sapiens, UniProt P34949); assay: MPI enzyme activity inhibition – biochemical, fluorescence intensity, coupled assay, primary screen (AID 1209)
T2 sequence (P34949 whole entry): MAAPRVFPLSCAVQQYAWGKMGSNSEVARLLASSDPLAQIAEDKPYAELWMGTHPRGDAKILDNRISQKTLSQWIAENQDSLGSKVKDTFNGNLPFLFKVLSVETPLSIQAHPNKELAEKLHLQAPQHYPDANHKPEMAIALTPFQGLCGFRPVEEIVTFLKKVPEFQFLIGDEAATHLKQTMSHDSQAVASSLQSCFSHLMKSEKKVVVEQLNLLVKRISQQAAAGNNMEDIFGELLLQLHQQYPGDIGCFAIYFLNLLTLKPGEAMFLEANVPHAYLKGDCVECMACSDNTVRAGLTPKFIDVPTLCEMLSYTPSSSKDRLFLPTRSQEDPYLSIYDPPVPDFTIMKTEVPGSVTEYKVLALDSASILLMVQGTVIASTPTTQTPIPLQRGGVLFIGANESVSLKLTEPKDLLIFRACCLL

[11] = viability loss in THP-1 monocytes – THP-1 cells, cytotoxicity control for Vif-APOBEC3G degradation inhibitor project, dose response (AID 1117359); assay type: functional; conditions: THP-1
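Wherever AC50 is given: cells exposed to compound for roughly 70 hours or longer before luminescence read.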

Sequence of Large T antigen (P03070 whole entry): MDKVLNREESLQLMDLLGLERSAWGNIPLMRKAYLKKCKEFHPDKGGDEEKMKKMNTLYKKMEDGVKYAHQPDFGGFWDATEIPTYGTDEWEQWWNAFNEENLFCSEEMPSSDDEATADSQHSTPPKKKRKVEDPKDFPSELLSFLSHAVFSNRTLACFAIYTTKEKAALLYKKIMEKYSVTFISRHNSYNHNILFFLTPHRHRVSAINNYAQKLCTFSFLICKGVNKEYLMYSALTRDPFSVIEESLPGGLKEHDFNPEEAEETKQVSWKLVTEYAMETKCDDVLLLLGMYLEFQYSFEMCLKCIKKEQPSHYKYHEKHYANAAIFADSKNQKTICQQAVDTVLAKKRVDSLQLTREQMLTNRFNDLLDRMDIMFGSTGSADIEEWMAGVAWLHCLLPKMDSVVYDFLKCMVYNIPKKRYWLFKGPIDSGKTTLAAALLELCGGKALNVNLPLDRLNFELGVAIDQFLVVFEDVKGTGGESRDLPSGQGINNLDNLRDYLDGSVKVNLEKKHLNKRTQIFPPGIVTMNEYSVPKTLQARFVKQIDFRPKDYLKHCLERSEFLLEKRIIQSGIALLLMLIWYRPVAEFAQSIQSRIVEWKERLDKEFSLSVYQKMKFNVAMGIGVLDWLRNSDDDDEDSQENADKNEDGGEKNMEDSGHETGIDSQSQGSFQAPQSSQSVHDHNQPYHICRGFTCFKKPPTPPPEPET

Q: For `COc1cc2cc(C(c3nnnn3C(C)(C)C)N3CCc4ccccc43)c(O)nc2cc1OC` (centres undefined), which IC50 [1] is on record?
A: > 100 µM (active)

Q: For `O=C(CCCn1c(=O)[nH]c2cc(Cl)ccc2c1=O)NCCN1CCN(c2ccccc2)CC1`, which IC50 [2] is on record?
A: > 100 µM (not active)

Q: With `COC(=O)C(Cc1ccc(N(CCCl)CCCl)cc1)/N=C/c1ccccc1O` (centres undefined) as the molecule, how does the IC50 [3] read?
A: 0.103 µM (active)

Q: And the AC50 [4]?
A: 0.899 µM (active)

Q: What about the IC50 [5] of the same molecule?
A: > 80 µM (inactive)

Q: With `C=C(C)[C@@]12OC3(c4ccccc4)O[C@@H]1C1[C@@H]4O[C@]4(CO)[C@@H](O)[C@]4(O)C(=O)C(C)=C[C@H]4[C@@]1(O3)[C@H](C)[C@H]2OC(=O)/C=C/C=C/c1ccccc1` (some centres undefined) as the molecule, how does the CC50 (Vero [6]) read?
A: > 100 µM (active)

Q: What about the EC50 [7] of the same molecule?
A: < 0.1 µM (active)

Q: What about the EC50 [8] of the same molecule?
A: > 60 µM (not active)

Q: What about the IC50 [5] of the same molecule?
A: > 80 µM (inactive)

Q: What about the CC50 (Vero [9]) of the same molecule?
A: > 25 µM (active)

Q: What about the EC50 (cells) of the same molecule?
A: < 0.004 µM (active)

Q: Which IC50 (Large T antigen) does the source give for `COc1cccc(-n2c(/C=C/c3ccc(O)c(O)c3)nc3ccccc3c2=O)c1` here?
A: > 100 µM (active)

Q: What about the IC50 [10] of the same molecule?
A: > 50 µM (not active)

Q: What about the CC50 [11] of the same molecule?
A: 23.1 µM (active)
